Measurements: patent publication US9981907B2, “Low molecular weight cationic lipids for oligonucleotide delivery” (SIRNA THERAPEUTICS, INC., priority 2010, dated 2018)

What was measured:
[1] = Rat in vivo toxicity (survival after LNP dosing); details: for Rats that failed to survive 48 hours: rats treated with 3 mg/kg
Procedure: Six hours post dose, food is removed from the cages. Animal necropsy is performed 24 hours after LNP dosing. Rats are anesthetized under isoflurane for 5 minutes, then maintained under anesthesia by placing them in nose cones continuing the delivery of isoflurane until ex-sanguination is completed. Blood is collected from the vena cava using a 23 gauge butterfly venipuncture set and aliquoted to serum separator vacutainers for serum chemistry analysis. Punches of the excised caudate liver lobe are taken and placed in RNALater (Ambion) for mRNA analysis. Preserved liver tissue was homogenized and total RNA isolated using a Qiagen bead mill and the Qiagen miRNA-Easy RNA isolation kit following the manufacturer's instructions. Liver ApoB mRNA levels were determined by quantitative RT-PCR. Message was amplified from purified RNA utilizing a rat ApoB commercial probe set (Applied Biosystems Cat #RN01499054_m1). The PCR reaction was performed on an ABI 7500 instrument with a 96-well Fast Block. The ApoB mRNA level is normalized to the housekeeping PPIB (NM 011149) mRNA. PPIB mRNA levels were determined by RT-PCR using a commercial probe set (Applied Biosystems Cat. No. Mm00478295_m1). Results are expressed as a ratio of ApoB mRNA/PPIB mRNA. All mRNA data is expressed relative to the PBS control dose. Serum ALT and AST analysis were performed on the Siemens Advia 1800 Clinical Chemistry Analyzer utilizing the Siemens alanine aminotransferase (Cat #03039631) and aspartate aminotransferase (Cat #03039631) reagents. […] 3 out of 4 rats treated with 6 mg/kg Compound 2 survived at 48 hours post dose.

[2] = Determination of cationic lipid levels in rat liver (LC/MS-MS); assay type: in vivo; details: rats dosed with RDV; compared with RDV containing DLinKC2DMA (Compound 4) or MC3 (Compound 3); FIG. 3
Procedure: Liver tissue was weighed into 20-ml vials and homogenized in 9 v/w of water using a GenoGrinder 2000 (OPS Diagnostics, 1600 strokes/min, 5 min). A 50 μL aliquot of each tissue homogenate was mixed with 300 μL of extraction/protein precipitating solvent (50/50 acetonitrile/methanol containing 500 nM internal standard) and the plate was centrifuged to sediment precipitated protein. A volume of 200 μL of each supernatant was then transferred to separate wells of a 96-well plate and 10 μl samples were directly analyzed by LC/MS-MS.
Standards were prepared by spiking known amounts of a methanol stock solution of compound into untreated rat liver homogenate (9 vol water/weight liver). Aliquots (50 μL) each standard/liver homogenate was mixed with 300 μL of extraction/protein precipitating solvent (50/50 acetonitrile/methanol containing 500 nM internal standard) and the plate was centrifuged to sediment precipitated protein. A volume of 200 μL of each supernatant was transferred to separate wells of a 96-well plate and 10 μl of each standard was directly analyzed by LC/MS-MS.
Absolute quantification versus standards prepared and extracted from liver homogenate was performed using an Aria LX-2 HPLC system (Thermo Scientific) coupled to an API 4000 triple quadrupole mass spectrometer (Applied Biosystems). […]

[3] = system: mRNA transcript for the firefly (Photinus pyralis) luciferase gene; assay: Mouse in vivo evaluation of efficacy (luciferase siRNA LNP/RDV, liver luminescence); details: LSL-Luc transgenic mice, RDV with Luc siRNA tail vein injected, 0.1 to 0.5 mg/kg siRNA, imaged 48 hours post dose; compared with RDV containing octyl-CLinDMA (OCD); FIG. 1
Procedure: LNPs utilizing Compound 1, in the nominal compositions described immediately above, were evaluated for in vivo efficacy. The siRNA targets the mRNA transcript for the firefly (Photinus pyralis) luciferase gene (Accession #M15077). […] The in vivo luciferase model employs a transgenic mouse in which the firefly luciferase coding sequence is present in all cells. ROSA26-LoxP-Stop-LoxP-Luc (LSL-Luc) transgenic mice licensed from the Dana Farber Cancer Institute are induced to express the Luciferase gene by first removing the LSL sequence with a recombinant Ad-Cre virus (Vector Biolabs). Due to the organo-tropic nature of the virus, expression is limited to the liver when delivered via tail vein injection. Luciferase expression levels in liver are quantitated by measuring light output, using an IVIS imager (Xenogen) following administration of the luciferin substrate (Caliper Life Sciences). Pre-dose luminescence levels are measured prior to administration of the RDVs. Luciferin in PBS (15 mg/mL) is intraperitoneally (IP) injected in a volume of 150 μL. After a four minute incubation period mice are anesthetized with isoflurane and placed in the IVIS imager. The RDVs (containing siRNA) in PBS vehicle were tail vein injected n a volume of 0.2 mL. […] In vivo efficacy results are expressed as % inhibition of luminescence relative to pre-dose luminescence levels. […]

With CCCCC/C=C\C/C=C\CCCCCCCCC(CCCCCCCC/C=C\C/C=C\CCCCC)OC(=O)CCCN(C)C [Compound 3, MC3] as the compound, how does the “Rats that failed to survive 48 hours” value [1] read?
Its value is 2 out of 4.

For CCCCC/C=C\C/C=C\CCCCCCCCC1(CCCCCCCC/C=C\C/C=C\CCCCC)OCC(CCN(C)C)O1 (centres unmarked) [Compound 4, DLinKC2DMA], which “Rats that failed to survive 48 hours” value [1] is on record?
The value was 3 out of 4.

What does the source list for CCCCCCCC/C=C\CCCCCCCC(CCCCCCCCC)OC(=O)CCCN(C)C (centres unmarked) [Compound 2, (18Z)-heptacos-18-en-10-yl 4-(dimethylamino)butanoate]?
Cationic lipid liver levels [2]: lower; Rats survived at 48 hours post dose ([1]; female, Sprague-Dawley (Crl:CD(SD)), rat, in vivo, 6 mg/kg, 48 h): 3 out of 4

Which “In vivo efficacy, % inhibition of luminescence relative to pre-dose luminescence levels” value [3] does the source give for CCCCC/C=C\C/C=C\CCCCCCCCCC(CCCCCCCCC)OC(=O)CCCN(C)C (centres unmarked) [Compound 1, (20Z,23Z)-nonacosa-20,23-dien-10-yl 4-(dimethylamino)butanoate] here?
Its value is “Greater efficacy”.
